This note sets out measurements from US9718828B2 (MERCK SHARP & DOHME CORP., priority 2011, dated 2017).

SMILES strings stand for the structures. Counter-ions that a name gives are not always drawn. Some results are limits rather than exact numbers.

In one test the target is Btk enzyme (His-Btk) (Homo sapiens (Human), UniProt Q06187). The experiment in a line: Btk enzyme activity, IMAP fluorescence polarization assay (Assay Method A).
Btk enzyme (His-Btk), sequence (Q06187 whole entry): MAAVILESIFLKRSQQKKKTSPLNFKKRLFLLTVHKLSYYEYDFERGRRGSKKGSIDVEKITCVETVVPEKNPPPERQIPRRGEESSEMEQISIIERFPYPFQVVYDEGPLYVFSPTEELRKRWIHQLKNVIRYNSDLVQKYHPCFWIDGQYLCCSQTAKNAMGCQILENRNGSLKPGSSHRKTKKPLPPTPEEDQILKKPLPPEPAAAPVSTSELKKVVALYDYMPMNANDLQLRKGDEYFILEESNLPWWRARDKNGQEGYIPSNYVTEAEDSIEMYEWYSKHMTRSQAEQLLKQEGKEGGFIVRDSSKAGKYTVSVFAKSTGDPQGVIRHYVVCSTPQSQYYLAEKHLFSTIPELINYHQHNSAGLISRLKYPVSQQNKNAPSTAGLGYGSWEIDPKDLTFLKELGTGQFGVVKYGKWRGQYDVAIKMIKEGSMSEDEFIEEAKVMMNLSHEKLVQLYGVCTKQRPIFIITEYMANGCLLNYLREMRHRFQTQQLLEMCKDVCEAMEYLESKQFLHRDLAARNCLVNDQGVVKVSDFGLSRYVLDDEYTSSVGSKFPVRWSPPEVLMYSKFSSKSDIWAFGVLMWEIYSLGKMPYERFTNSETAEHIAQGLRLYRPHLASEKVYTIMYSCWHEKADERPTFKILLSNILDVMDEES
Conditions: not given
Background: In fluorescence polarisation assays a small probe gives low polarisation when free and higher when bound to something large.
By EC50 is commonly meant the midpoint of the concentration-response curve. Molecule `Nc1nccn2c(C3CC4CCC3N4C(=O)OCc3ccccc3)nc(-c3ccc(C(=O)Nc4ccccn4)cc3)c12` (stereo not drawn) [Example 149, benzyl 2-(8-amino-1-(4-(pyridin-2-ylcarbamoyl)phenyl)imidazo [1,5-a]pyrazin-3-yl)-7-azabicyclo[2.2.1]heptane-7-carboxylate] yielded an EC50 of 10 to 100 nM. Molecule `Nc1nccn2c(N3CCC3)nc(-c3ccc(C(=O)Nc4cc(C(F)(F)F)ccn4)cc3)c12` [Example 210, 4-(8-amino-3-(azetidin-1-yl)imidazo[1,5-a]pyrazin-1-yl)-N-(4-(trifluoromethyl)pyridin-2-yl)benzamide] returned an EC50 of 10 to 100 nM. Consider `Nc1nccn2c([C@@H]3CCCN(C(=O)C(=O)c4ccco4)C3)nc(-c3ccc(C(=O)Nc4cc(C5CC5)ccn4)cc3)c12` [Example 123, (R)-4-(8-amino-3-(1-(2-(furan-2-yl)-2-oxoacetyl)piperidin-3-yl)imidazo[1,5-a]pyrazin-1-yl)-N-(4-cyclopropylpyridin-2-yl)benzamide], for which the EC50 was 10 to 100 nM. Same read-out and setting: the figure for `N#Cc1ccnc(NC(=O)c2ccc(-c3nc([C@@H]4CCCN(C(=O)C5CC5)C4)n4ccnc(N)c34)cc2)c1` [Example 98, (R)-4-(8-amino-3-(1-(cyclopropanecarbonyl)piperidin-3-yl)imidazo[1,5-a]pyrazin-1 yl)-N-(4-cyanopyridin-2-yl)benzamide] is less than 10 nM. `CS(=O)(=O)N1CCC[C@@H](c2nc(-c3ccc(C(=O)Nc4ccccn4)cc3)c3c(N)nccn23)C1` [Example 49, (R)-4-(8-amino-3-(1-(methylsulfonyl)piperidin-3-yl)imidazo[1,5-a]pyrazin-1-yl)-N-(pyridin-2-yl)benzamide] displayed an EC50 of 100 to 1000 nM. Regarding `CC1(C(=O)N2CCC[C@@H](c3nc(-c4ccc(C(=O)Nc5cnccn5)cc4)c4c(N)nccn34)C2)COC1` [Example 290, (R)-4-(8-amino-3-(1-(3-methyloxetane-3-carbonyl)piperidin-3-yl)imidazo[1,5-a]pyrazin-1-yl)-N-(pyrazin-2-yl)benzamide], the EC50 lay within 10 to 100 nM. For `Nc1nccn2c1c(-c1ccc(C(=O)Nc3ccccn3)cc1)nc2[C@H]1CC[C@H](O)CC1` [Example 1, 4-(8-amino-3-((trans)-4-hydroxycyclohexyl)imidazo[1,5-a]pyrazin-1-yl)-N-(pyridin-2-yl)benzamide], the EC50 was in the range of 10 to 100 nM.

`CCCc1ccnc(NC(=O)c2ccc(-c3nc(C4CCOCC4)n4ccnc(N)c34)cc2)c1` [Example 24, 4-(8-amino-3-(tetrahydro-2H-pyran-4-yl)imidazo [1,5-a]pyrazin-1-yl)-N-(4-propylpyridin-2-yl)benzamide] had an EC50 of less than 10 nM.

`Nc1nccn2c([C@@H]3CCCN(C(=O)CC4CC4)C3)nc(-c3ccc(C(=O)Nc4ccccn4)cc3)c12` [Example 92, (R)-4-(8-amino-3-(1-(2-cyclopropylacetyl)piperidin-3 yl)imidazo[1,5-a]pyrazin-1-yl)-N-(pyridin-2-yl)benzamide] registered an EC50 of less than 10 nM. Consider `CC(C)(C#N)C(=O)N1CCC[C@@H](n2nc(-c3ccc(C(=O)Nc4cc(C(F)(F)F)ccn4)cc3)c3c(N)ncnc32)C1` [Example 263, (R)-4-(4-amino-1-(1-(2-cyano-2-methylpropanoyl)piperidin-3-yl)-1H-pyrazolo[3,4-d]pyrimidin-3-yl)-N-(4-(trifluoromethyl)pyridin-2-yl)benzamide], for which the EC50 lay in the range of 10 to 100 nM.

Still in this test, the particulars now being: read-out: EC50 Btk activity values - Assay Method A.
As for `Nc1nccn2c([C@@H]3CCCN(C(=O)OCc4ccccc4)C3)nc(-c3ccc(C(=O)Nc4cc(C(F)(F)F)ccn4)cc3)c12` [Example 107, (R)-benzyl 3-(8-amino-1-(4-(4-(trifluoromethyl)pyridin-2-ylcarbamoyl)phenyl)imidazo[1,5-a]pyrazin-3-yl)piperidine-1-carboxylate], the EC50 was less than 10 nM.

Staying with this test, now noted: read-out: EC50 Btk activity values - Assay Method A; IMAP-FP, 60 min pre-incubation, 5 μM ATP.
Consider `Nc1nccn2c1c(-c1ccc(C(=O)Nc3nc4c(s3)CNCC4)cc1)nc2[C@H]1CC[C@H](O)CC1` [Example 17, 4-(8-amino-3-((trans)-4-hydroxycyclohexyl)imidazo[1,5-a]pyrazin-1-yl)-N-(4,5,6,7-tetrahydrothiazolo[5,4-c]pyridin-2-yl)benzamide], for which the EC50 is no less than 1000 nM.

Still in this test, the particulars now being: read-out: EC50 Btk activity values - Assay Method A; IMAP-FP, 60 min pre-incubation, 5 μM ATP; class 100-1000 is given as ≧100 nM-<1 μM.
Regarding `CCOCCC(=O)N1C[C@H](c2nc(-c3ccc(C(=O)Nc4cc(C(F)(F)F)ccn4)cc3)c3c(N)nccn23)CC[C@@H]1C` (relative stereo) [Example 189, 4-(8-amino-3-((cis)-1-(3-ethoxypropanoyl)-6-methylpiperidin-3-yl)imidazo[1,5-a]pyrazin-1-yl)-N-(4-(trifluoromethyl)pyridin-2-yl)benzamide, TFA salt], the EC50 was less than 10 nM. `Nc1nccn2c(N3CCCC(C(=O)N[C@@H]4CCOC4)C3)nc(-c3ccc(C(=O)Nc4cc(C(F)(F)F)ccn4)cc3)c12` (stereo partly drawn) [Example 238, 1-(8-amino-1-(4-(4-(trifluoromethyl)pyridin-2-ylcarbamoyl)phenyl)imidazo[1,5-a]pyrazin-3-yl)-N-((R)-tetrahydrofuran-3-yl)piperidine-3-carboxamide, TFA salt]: the EC50 is less than 10 nM.

Regarding `Nc1nccn2c([C@@H]3CCCN(C(=O)Nc4ccccc4Cl)C3)nc(-c3ccc(C(=O)Nc4cc(C5CC5)ccn4)cc3)c12` [Example 120, (R)-3-(8-amino-1-(4-(4-cyclopropylpyridin-2-ylcarbamoyl)phenyl)imidazo [1,5-a]pyrazin-3-yl)-N-(2-chlorophenyl)piperidine-1-carboxamide], the EC50 was less than 10 nM.

In the case of `Nc1nccn2c([C@@H]3CCCN(CC(O)CO)C3)nc(-c3ccc(C(=O)Nc4cc(C(F)(F)F)ccn4)cc3)c12` (stereo partly drawn) [Example 139, 4-(8-amino-3-((3R)-1-(2,3-dihydroxypropyl)piperidin-3-yl)imidazo[1,5-a]pyrazin-1-yl)-N-(4-(trifluoromethyl)pyridin-2-yl)benzamide, TFA salt], the EC50 is less than 10 nM. On to `CCCc1ccnc(NC(=O)c2ccc(-c3nc([C@H]4CC[C@H](O)CC4)n4ccnc(N)c34)cc2OC)c1` [Example 11, 4-(8-amino-3-((trans)-4-hydroxycyclohexyl)imidazo[1,5-a]pyrazin-1-yl)-2-methoxy-N-(4-propylpyridin-2-yl)benzamide], for which the EC50 is less than 10 nM.

Turning to `CC1(C(=O)N2CCC[C@@H](n3nc(-c4ccc(C(=O)Nc5cc(C(F)(F)F)ccn5)cc4)c4c(N)ncnc43)C2)COC1` [Example 267, (R)-4-(4-amino-1-(1-(3-methyloxetane-3-carbonyl)piperidin-3-yl)-1H-pyrazolo[3,4-d]pyrimidin-3-yl)-N-(4-(trifluoromethyl)pyridin-2-yl)benzamide], the EC50 was less than 10 nM. Turning to `CC(C)(F)C(=O)N1CCC[C@@H](c2nc(-c3ccc(C(=O)Nc4cc(C(F)(F)F)ccn4)cc3)c3c(N)ncnn23)C1` [Example 257, (R)-4-(4-amino-7-(1-(2-fluoro-2-methylpropanoyl)piperidin-3-yl)imidazo[1,5-f][1,2,4]triazin-5-yl)-N-(4-(trifluoromethyl)pyridin-2-yl)benzamide], the EC50 was less than 10 nM. The same measure, in the same setting: to `C[C@H]1CC[C@@H](c2nc(-c3ccc(C(=O)Nc4ccccn4)cc3)c3c(N)nccn23)CN1C(=O)C1CC(F)(F)C1` (relative stereo) [Example 203, 4-(8-amino-3-((cis)-1-(3,3-difluorocyclobutanecarbonyl)-6-methylpiperidin-3-yl)imidazo[1,5-a]pyrazin-1-yl)-N-(pyridin-2-yl)benzamide, TFA salt] belongs less than 10 nM. Same read-out and setting: the figure for `CCc1ccnc(NC(=O)c2ccc(-c3nc([C@H]4CC[C@H](O)CC4)n4ccnc(N)c34)cc2)c1` [Example 19, 4-(8-amino-3-((trans)-4-hydroxycyclohexyl)imidazo[1,5-a]pyrazin-1-yl)-N-(4-ethylpyridin-2-yl)benzamide] is less than 10 nM. Turning to `CO[C@H]1CC[C@@H](c2nc(-c3ccc(C(=O)Nc4cc(C(F)(F)F)ccn4)cc3)c3c(N)nccn32)CC1` [Example 40, 4-(8-amino-3-((cis)-4-methoxycyclohexyl)imidazo [1,5-a]pyrazin-1-yl)-N-(4-(trifluoromethyl)pyridin-2-yl)benzarnide], the EC50 is less than 10 nM. As to `COCCC(=O)N[C@H]1CCC[C@@H](c2nc(-c3ccc(C(=O)Nc4cc(C(F)(F)F)ccn4)cc3)c3c(N)nccn23)C1` (relative stereo) [Example 158, 4-(8-amino-3-((cis)-3-(3-methoxypropanamido)cyclohexyl)imidazo [1,5-a]pyrazin-1-yl)-N-(4-(trifluoromethyl)pyridin-2-yl)benzamide], the 50% effective concentration (EC50) is less than 10 nM. The same measure, in the same setting: the figure for `Nc1nccn2c(N3CCCC(C(=O)NC[C@@H]4CCCO4)C3)nc(-c3ccc(C(=O)Nc4ccccn4)cc3)c12` (stereo partly drawn) [Example 227, 1-(8-amino-1-(4-(pyridin-2-ylcarbamoyl)phenyl)imidazo[1,5-a]pyrazin-3-yl)-N-(((S)-tetrahydrofuran-2-yl)methyl)piperidine-3-carboxamide, TFA salt] is less than 10 nM; for `CCCc1ccnc(NC(=O)c2ccc(-c3nc(N4CCOCC4)n4ccnc(N)c34)cc2)c1` [Example 212, 4-(8-amino-3-morpholinoimidazo[1,5-a]pyrazin-1-yl)-N-(4-propylpyridin-2-yl)benzamide] it is less than 10 nM.

Regarding `Nc1ncc(Cl)n2c(C3CN(C(=O)C4(O)CCC4)CCO3)nc(-c3ccc(C(=O)Nc4cc(C(F)(F)F)ccn4)cc3)c12` (stereo not drawn) [Example 316, 4-(8-amino-5-chloro-3-(4-(1-hydroxycyclobutanecarbonyl)morpholin-2-yl)imidazo[1,5-a]pyrazin-1-yl)-N-(4-(trifluoromethyl)pyridin-2-yl)benzamide], the EC50 is less than 10 nM.

Consider `Nc1nccn2c(C3CCCC3)nc(-c3ccc(C(=O)Nc4cc(C(F)(F)F)ccn4)cc3)c12` [Example 43, 4-(8-amino-3-cyclopentylimidazo[1,5-a]pyrazin-1-yl)-N-(4-(trifluoromethyl)pyridin-2-yl)benzamide, TFA salt], for which the EC50 is less than 10 nM.
